From patent US12617779B2, “Self degradation-type CDK9 inhibitor prodrug and liposome encapsulating same” (Sumitomo Pharma Co., Ltd., priority 2021, dated 2026)
Structures can show the parent of a compound that is named as a salt.

Assay: Liposome encapsulation test, remote loading method (Experimental Example 4);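 for encapsulation efficiency: encapsulated compound as percent of compound amount introduced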
Format: physicochemical
Settings: for encapsulation rate, encapsulation efficiency and encapsulated compound content per 50 μmol of lipid: remote loading into liposomes
Protocol: For Example 1, Example 2, Example 3, Example 4, Example 5, Example 6, Example 7, Example 8, Example 9, Example 10, Example 11, Example 12, Example 13, Example 14, Example 15, Example 16, Example 17 and Alvocidib, an encapsulation test in liposomes was performed using a remote loading method.
<Liposome Encapsulation Test of Example 1, Example 2, Example 5, Example 6, Example 9, Example 10, Example 11, Example 12, Example 13, Example 14, Example 15, and Example 16>
Hydrogenated soybean phosphatidylcholine (COATSOME NC-21E, manufactured by NOF CORPORATION, 7.77 g), cholesterol (manufactured by Sigma, 2.78 g) and distearoylphosphatidylethanolamine-methoxypolyethylene glycol 2000 (SUNBRIGHT DSPE-020CN, manufactured by NOF CORPORATION, 2.47 g) were dissolved in tert-butyl alcohol (720 mL) warmed to 65° C. The solution was placed in an eggplant flask and frozen in a dry ice-acetone bath, and then the tert-butyl alcohol was removed by evaporation under reduced pressure to give a lipid mixture.
To the above lipid mixture was added a 250 mM ammonium sulfate solution (240 mL), and the mixture was warmed to 65° C., and dispersed by a homogenizer (ULTRA-TURRAX, manufactured by IKA) to give a crude liposome dispersion. Then, the crude liposome dispersion was dispersed by a high pressure homogenizer (Nano-Mizer NM2, manufactured by YOSHIDA KIKAI CO., LTD.) at a pressure of 100 MPa to give liposomes with an average particle size (Z-average) of about 80 nm. The liposome outer solution was replaced with 10 mM L-histidine/10% sucrose solution (pH 6.5) using a dialysis cassette (Slide-A-Lyzer G2 Dialysis Cassettes 20K MWCO, manufactured by Thermo Scientific) to give an empty liposome solution. The solution was filtered through a 0.22 μm membrane filter, and a 10 mM L-histidine/10% sucrose solution (pH 6.5) was added thereto to adjust the total lipid concentration to 50 mM (50 μmol/mL). The lipid concentration was determined by quantitatively analyzing cholesterol using HPLC and calculating the total lipid concentration from the lipid mixing ratio. The amount for the above adjustment was increased or decreased as appropriate.
The compound (10 mg) was weighed, and the empty liposome solution (1 mL) with a total lipid concentration of 50 mM was added thereto. The solution was adjusted to pH 5 to 6 with 1 mol/L hydrochloric acid or 1 mol/L aqueous sodium hydroxide solution as necessary, warmed in a 65° C. water bath for 2 to 3 minutes, and ice-cooled. The mixture was centrifuged at 15,000×g for 5 minutes to precipitate and remove insoluble substances.
The liposome solution (100 μL) after removing insoluble substances was taken on an ultrafiltration filter (Amicon Ultra, 100K, 0.5 mL, manufactured by Merck) and centrifuged at 4° C., 15,000×g for 10 minutes. The compound concentrations in the liposome solution after removing insoluble substances and in the filtrate after ultrafiltration were determined by HPLC, and the encapsulation rate, encapsulation efficiency, and encapsulated compound content per 50 μmol of lipid were calculated by the following formula.
The measurement conditions for HPLC are as follows.
An empty liposome solution with a total lipid concentration of 75 mM was prepared by the same procedure as for the above example compound group. Each compound was weighed, and the empty liposome solution with a total lipid concentration of 75 mM was added thereto such that the compound concentration became 15 mg/mL. The solution was adjusted to pH 5 to 6 with 1 mol/L hydrochloric acid or 1 mol/L aqueous sodium hydroxide solution, warmed in a 65° C. water bath for 3 minutes, and ice-cooled. Hereafter, the encapsulation rate and encapsulation efficiency were calculated by the same procedure as for the above example compound group. The encapsulated compound content per 50 μmol of lipid was calculated by the following formula.
[formula] <Liposome Encapsulation Test of Example 7, Example 8 and Example 17> […]

[1] = Compound concentration when encapsulated 10 mg/mL
[2] = Compound concentration when encapsulated 15 mg/mL

SMILES	Encapsulated compound content per 50 μmol of lipid [1] [mg]	Encapsulation efficiency [1] [%]	Encapsulation rate [1] [%]	encapsulation rate, encapsulation efficiency and encapsulated compound content per 50 μmol of lipid	Encapsulated compound content per 50 μmol of lipid [2] [mg]	Encapsulation efficiency [2] [%]	Encapsulation rate [2] [%]
CCN(C[C@@H]1CCCCN1)C(=O)Oc1cc(O)c2c(=O)cc(-c3ccccc3Cl)oc2c1[C@H]1CCN(C)C[C@H]1O [Example 1, 2-(2-chlorophenyl)-5-hydroxy-8-[(3S,4R)-3-hydroxy-1-methylpiperidin-4-yl]-4-oxo-4H-1-benzopyran-7-yl ethyl{[(2S)-piperidin-2-yl]methyl}carbamate ditrifluoroacetate]	7.3	73.2	82.9	high	–	–	–
CCN(C[C@H]1CCCCN1)C(=O)Oc1cc(O)c2c(=O)cc(-c3ccccc3Cl)oc2c1[C@H]1CCN(C)C[C@H]1O [Example 2, 2-(2-chlorophenyl)-5-hydroxy-8-[(3S,4R)-3-hydroxy-1-methylpiperidin-4-yl]-4-oxo-4H-1-benzopyran-7-yl ethyl{[(2R)-piperidin-2-yl]methyl}carbamate]	7.1	71.1	81.1	high	–	–	–
CN1CC[C@H](c2c(OC(=O)N(C)C[C@@H]3CCCCN3)cc(O)c3c(=O)cc(-c4ccccc4Cl)oc23)[C@H](O)C1 [Example 3, 2-(2-chlorophenyl)-5-hydroxy-8-[(3S,4R)-3-hydroxy-1-methylpiperidin-4-yl]-4-oxo-4H-1-benzopyran-7-yl methyl{[(2S)-piperidin-2-yl]methyl}carbamate]	–	–	–	high	6.0	60.2	61.0
CN1CC[C@H](c2c(OC(=O)N(C)C[C@H]3CCCCN3)cc(O)c3c(=O)cc(-c4ccccc4Cl)oc23)[C@H](O)C1 [Example 4, 2-(2-chlorophenyl)-5-hydroxy-8-[(3S,4R)-3-hydroxy-1-methylpiperidin-4-yl]-4-oxo-4H-1-benzopyran-7-yl methyl{[(2R)-piperidin-2-yl]methyl}carbamate]	–	–	–	high	7.1	71.2	72.2
CCCN(C[C@@H]1CCCCN1)C(=O)Oc1cc(O)c2c(=O)cc(-c3ccccc3Cl)oc2c1[C@H]1CCN(C)C[C@H]1O [Example 5, 2-(2-chlorophenyl)-5-hydroxy-8-[(3S,4R)-3-hydroxy-1-methylpiperidin-4-yl]-4-oxo-4H-1-benzopyran-7-yl {[(2S)-piperidin-2-yl]methyl}propylcarbamate]	7.2	71.6	75.7	high	–	–	–
CCCN(C[C@H]1CCCCN1)C(=O)Oc1cc(O)c2c(=O)cc(-c3ccccc3Cl)oc2c1[C@H]1CCN(C)C[C@H]1O [Example 6, 2-(2-chlorophenyl)-5-hydroxy-8-[(3S,4R)-3-hydroxy-1-methylpiperidin-4-yl]-4-oxo-4H-1-benzopyran-7-yl {[(2R)-piperidin-2-yl]methyl}propylcarbamate]	6.6	65.9	73.8	high	–	–	–
CCN(CC1CCCCN1)C(=O)Oc1cc(O)c2c(=O)cc(-c3ccccc3Cl)oc2c1[C@H]1CCN(C)C[C@H]1O (stereo partly drawn) [Example 7, 2-(2-chlorophenyl)-5-hydroxy-8-[(3S,4R)-3-hydroxy-1-methylpiperidin-4-yl]-4-oxo-4H-1-benzopyran-7-yl ethyl[(piperidin-2-yl)methyl]carbamate dihydrochloride]	7.3	72.8	81.1	high	–	–	–
CN1CC[C@H](c2c(OC(=O)N(C)CC3CCCCN3)cc(O)c3c(=O)cc(-c4ccccc4Cl)oc23)[C@H](O)C1 (stereo partly drawn) [Example 8, 2-(2-chlorophenyl)-5-hydroxy-8-[(3S,4R)-3-hydroxy-1-methylpiperidin-4-yl]-4-oxo-4H-1-benzopyran-7-yl methyl[(piperidin-2-yl)methyl]carbamate]	6.1	61.1	60.6	high	–	–	–
CCCN(CC1CCCCN1)C(=O)Oc1cc(O)c2c(=O)cc(-c3ccccc3Cl)oc2c1[C@H]1CCN(C)C[C@H]1O (stereo partly drawn) [Example 9, 2-(2-chlorophenyl)-5-hydroxy-8-[(3S,4R)-3-hydroxy-1-methylpiperidin-4-yl]-4-oxo-4H-1-benzopyran-7-yl [(piperidin-2-yl)methyl]propylcarbamate]	7.2	72.1	78.5	high	–	–	–
CC(C)N(CC1CCCCN1)C(=O)Oc1cc(O)c2c(=O)cc(-c3ccccc3Cl)oc2c1[C@H]1CCN(C)C[C@H]1O (stereo partly drawn) [Example 10, 2-(2-chlorophenyl)-5-hydroxy-8-[(3S,4R)-3-hydroxy-1-methylpiperidin-4-yl]-4-oxo-4H-1-benzopyran-7-yl [(piperidin-2-yl)methyl]propan-2-ylcarbamate]	2.3	23.0	22.8	–	–	–	–
CN1CC[C@H](c2c(OC(=O)N(CCF)CC3CCCCN3)cc(O)c3c(=O)cc(-c4ccccc4Cl)oc23)[C@H](O)C1 (stereo partly drawn) [Example 11, 2-(2-chlorophenyl)-5-hydroxy-8-[(3S,4R)-3-hydroxy-1-methylpiperidin-4-yl]-4-oxo-4H-1-benzopyran-7-yl (2-fluoroethyl) [(piperidin-2-yl)methyl]carbamate]	4.6	46.1	45.5	–	–	–	–
COCCN(CC1CCCCN1)C(=O)Oc1cc(O)c2c(=O)cc(-c3ccccc3Cl)oc2c1[C@H]1CCN(C)C[C@H]1O (stereo partly drawn) [Example 12, 2-(2-chlorophenyl)-5-hydroxy-8-[(3S,4R)-3-hydroxy-1-methylpiperidin-4-yl]-4-oxo-4H-1-benzopyran-7-yl (2-methoxyethyl) [(piperidin-2-yl)methyl]carbamate]	3.6	36.2	35.8	–	–	–	–
CN1CC[C@H](c2c(OC(=O)N(CCC(F)(F)F)CC3CCCCN3)cc(O)c3c(=O)cc(-c4ccccc4Cl)oc23)[C@H](O)C1 (stereo partly drawn) [Example 13, 2-(2-chlorophenyl)-5-hydroxy-8-[(3S,4R)-3-hydroxy-1-methylpiperidin-4-yl]-4-oxo-4H-1-benzopyran-7-yl [(piperidin-2-yl)methyl](3,3,3-trifluoropropyl)carbamate]	3.5	34.6	35.2	–	–	–	–
CN1CC[C@H](c2c(OC(=O)N(CCCC(F)(F)F)CC3CCCCN3)cc(O)c3c(=O)cc(-c4ccccc4Cl)oc23)[C@H](O)C1 (stereo partly drawn) [Example 14, 2-(2-chlorophenyl)-5-hydroxy-8-[(3S,4R)-3-hydroxy-1-methylpiperidin-4-yl]-4-oxo-4H-1-benzopyran-7-yl [(piperidin-2-yl)methyl](4,4,4-trifluorobutyl)carbamate]	2.8	28.4	26.6	–	–	–	–
